Assay results reported in the supplement of paper PMC8612539.
Values after ≈ are worked out from the molar mass of the structure shown.

What was measured:
Mannheimia haemolytica = test: minimum inhibitory concentration (MIC)
Experimental: (§1)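 Broth microdilution MIC (Sensititre BOPO7F bovine plate, CLSI methods) of 19 antimicrobials against field isolates of P. multocida, M. haemolytica, H. somni (deep nasopharyngeal swabs) and E. coli, Enterococcus spp. (rectal swabs) from weaned dairy heifers. Incubation 16-24 h at 35 C. MIC is the lowest concentration preventing visible growth. Values with <= or > lie at the tested range limits. Trimethoprim-sulfamethoxazole is given as the trimethoprim component of a 1:19 mixture.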

Enterococcus spp. = test: minimum inhibitory concentration (MIC)
Experimental: as §1

CC[C@H]1OC(=O)C[C@@H](O)[C@H](C)[C@@H](O[C@@H]2O[C@H](C)[C@@H](O[C@H]3C[C@@](C)(O)[C@@H](O)[C@H](C)O3)[C@H](N(C)C)[C@H]2O)[C@@H](CC=O)C[C@@H](C)C(=O)/C=C/C(C)=C/[C@@H]1CO[C@@H]1O[C@H](C)[C@@H](O)[C@@H](OC)[C@H]1OC [Tylosin]
minimum inhibitory concentration [µg/mL]
Conditions | Enterococcus spp. | Mannheimia haemolytica
isolate (source animal id): 2 | 2 (≈ 2.18 µM) | –
isolate (source animal id): 8 | – | > 32
isolate (source animal id): 13 | – | > 32
isolate (source animal id): 18 | – | > 32
isolate (source animal id): 21 | – | > 32
isolate (source animal id): 25 | – | > 32
isolate (source animal id): 27 | – | > 32
isolate (source animal id): 28 | – | > 32
isolate (source animal id): 30 | – | > 32
isolate (source animal id): 31 | – | > 32
isolate (source animal id): 32 | – | > 32
isolate (source animal id): 34 | – | > 32
isolate (source animal id): 35 | > 32 | –
isolate (source animal id): 36 | – | > 32
isolate (source animal id): 37 | – | > 32
isolate (source animal id): 40 | – | 32 (≈ 34.9 µM)
isolate (source animal id): 41 | – | > 32
isolate (source animal id): 42 | 2 (≈ 2.18 µM) | –
isolate (source animal id): 43 | – | > 32
isolate (source animal id): 44 | 2 (≈ 2.18 µM) | –
isolate (source animal id): 46 | – | > 32
isolate (source animal id): 49 | – | > 32
isolate (source animal id): 50 | – | > 32
isolate (source animal id): 51 | – | > 32
isolate (source animal id): 52 | – | > 32
isolate (source animal id): 53 | – | > 32
isolate (source animal id): 55 | – | 32 (≈ 34.9 µM)
isolate (source animal id): 56 | – | > 32
isolate (source animal id): 57 | – | > 32
isolate (source animal id): 79 | 2 (≈ 2.18 µM) | –
isolate (source animal id): 88 | 2 (≈ 2.18 µM) | –
isolate (source animal id): 91 | 2 (≈ 2.18 µM) | –
isolate (source animal id): 92 | 2 (≈ 2.18 µM) | –
isolate (source animal id): 100 | – | > 32
isolate (source animal id): 103 | – | > 32
isolate (source animal id): 107 | – | > 32
isolate (source animal id): 108 | – | > 32
isolate (source animal id): 111 | 2 (≈ 2.18 µM) | –
isolate (source animal id): 112 | – | > 32
isolate (source animal id): 113 | – | > 32
isolate (source animal id): 121 | – | > 32
isolate (source animal id): 122 | > 32 | > 32
isolate (source animal id): 123 | 2 (≈ 2.18 µM) | > 32
isolate (source animal id): 126 | – | > 32
isolate (source animal id): 133 | 2 (≈ 2.18 µM) | > 32
isolate (source animal id): 135 | – | > 32
isolate (source animal id): 138 | – | > 32
isolate (source animal id): 141 | – | > 32
isolate (source animal id): 142 | – | > 32
isolate (source animal id): 145 | – | > 32
isolate (source animal id): 149 | – | > 32
isolate (source animal id): 151 | – | > 32
isolate (source animal id): 152 | – | > 32
isolate (source animal id): 154 | – | > 32
isolate (source animal id): 158 | > 32 | –
isolate (source animal id): 159 | – | > 32
isolate (source animal id): 162 | – | > 32
isolate (source animal id): 168 | 2 (≈ 2.18 µM) | –
isolate (source animal id): 169 | 2 (≈ 2.18 µM) | –
isolate (source animal id): 170 | – | > 32
isolate (source animal id): 171 | 2 (≈ 2.18 µM) | > 32
isolate (source animal id): 172 | – | > 32
isolate (source animal id): 173 | – | > 32
isolate (source animal id): 175 | > 32 | –
isolate (source animal id): 177 | 4 (≈ 4.37 µM) | –
isolate (source animal id): 179 | – | 32 (≈ 34.9 µM)
isolate (source animal id): 180 | – | > 32
isolate (source animal id): 181 | 2 (≈ 2.18 µM) | –
isolate (source animal id): 182 | 2 (≈ 2.18 µM) | –
isolate (source animal id): 183 | 2 (≈ 2.18 µM) | > 32
isolate (source animal id): 186 | – | > 32
isolate (source animal id): 187 | 2 (≈ 2.18 µM) | > 32
isolate (source animal id): 188 | – | > 32
isolate (source animal id): 190 | 2 (≈ 2.18 µM) | > 32
isolate (source animal id): 191 | – | > 32
isolate (source animal id): 192 | – | > 32
isolate (source animal id): 194 | 2 (≈ 2.18 µM) | –
isolate (source animal id): 195 | 2 (≈ 2.18 µM) | –
isolate (source animal id): 197 | 2 (≈ 2.18 µM) | –
isolate (source animal id): 201 | – | > 32
isolate (source animal id): 202 | – | > 32
isolate (source animal id): 209 | – | > 32
isolate (source animal id): 211 | 2 (≈ 2.18 µM) | > 32
isolate (source animal id): 214 | 2 (≈ 2.18 µM) | –
isolate (source animal id): 220 | – | > 32
isolate (source animal id): 221 | – | > 32
isolate (source animal id): 222 | 4 (≈ 4.37 µM) | –
isolate (source animal id): 223 | 2 (≈ 2.18 µM) | > 32
isolate (source animal id): 228 | > 32 | –
isolate (source animal id): 230 | > 32 | –
isolate (source animal id): 233 | – | > 32
isolate (source animal id): 235 | > 32 | –
isolate (source animal id): 236 | 8 (≈ 8.73 µM) | –
isolate (source animal id): 237 | – | > 32
isolate (source animal id): 239 | 2 (≈ 2.18 µM) | –
isolate (source animal id): 241 | > 32 | > 32
isolate (source animal id): 244 | 2 (≈ 2.18 µM) | –
isolate (source animal id): 246 | 2 (≈ 2.18 µM) | –
isolate (source animal id): 247 | > 32 | –
isolate (source animal id): 250 | 2 (≈ 2.18 µM) | –
isolate (source animal id): 252 | > 32 | > 32
isolate (source animal id): 253 | – | > 32
isolate (source animal id): 259 | – | > 32
isolate (source animal id): 260 | – | > 32
isolate (source animal id): 262 | – | > 32
isolate (source animal id): 268 | > 32 | –
isolate (source animal id): 282 | 2 (≈ 2.18 µM) | > 32
isolate (source animal id): 285 | > 32 | –
isolate (source animal id): 287 | – | > 32
isolate (source animal id): 288 | – | > 32
isolate (source animal id): 289 | 2 (≈ 2.18 µM) | –
isolate (source animal id): 290 | 4 (≈ 4.37 µM) | –
isolate (source animal id): 291 | – | > 32
isolate (source animal id): 293 | – | > 32
isolate (source animal id): 296 | 2 (≈ 2.18 µM) | –
isolate (source animal id): 298 | ≤ 0.5 | > 32
isolate (source animal id): 299 | – | > 32
isolate (source animal id): 300 | – | 32 (≈ 34.9 µM)
isolate (source animal id): 301 | 2 (≈ 2.18 µM) | –
isolate (source animal id): 302 | – | > 32
isolate (source animal id): 304 | – | > 32
isolate (source animal id): 306 | – | > 32
isolate (source animal id): 308 | – | > 32
isolate (source animal id): 309 | – | > 32
isolate (source animal id): 310 | > 32 | –
isolate (source animal id): 313 | – | > 32
isolate (source animal id): 318 | – | > 32
isolate (source animal id): 320 | 2 (≈ 2.18 µM) | > 32
isolate (source animal id): 321 | – | > 32
isolate (source animal id): 323 | – | > 32
isolate (source animal id): 324 | – | > 32
isolate (source animal id): 326 | – | > 32
isolate (source animal id): 328 | – | > 32
isolate (source animal id): 329 | – | > 32
isolate (source animal id): 331 | 4 (≈ 4.37 µM) | –
isolate (source animal id): 333 | 2 (≈ 2.18 µM) | > 32
isolate (source animal id): 335 | – | > 32
isolate (source animal id): 338 | – | > 32
isolate (source animal id): 341 | > 32 | –
